Results: US6800672B2, “Biodegradable compositions comprising poly(cycloaliphatic phosphoester) compounds, articles, and methods for using the same” (Guilford Pharmaceuticals, Inc., priority 1997, dated 2004)
Several values for one entry are separate records, joined by “and”; a condition that tells them apart may be missing. Identical values can stand only once. Counter-ions that a name gives are not always drawn. Like-named read-outs stand apart in the source and are kept apart here.

How the values were obtained:
[1] = tested on: melanoma cell line B16/F10; test: Drug sensitivity in an in vitro tumor model; assay type: cell-based; conditions: vs cisplatin and 5-FU, even at 0.1 μg/mL
Description: The B16/F10 cells were cultivated in the presence of different concentrations of DOX, cisplatin and 5-FU.

[2] = tested on: melanoma cell line B16/F10 tumors

Structure (SMILES)	inhibitory effect on the cell culture [1]	Number of Mice Survived, 28 days ([2]; mouse, in vivo)	early death after injection ([2]; mouse, in vivo)	Number of Mice Survived, 42 days ([2]; mouse, in vivo, hydrochloride)	Tumor Volume After Tumor Injection, 28 days ([2]; treatment injected Day 3 (3d))	Tumor Volume After Tumor Injection, 42 days ([2]; treatment injected Day 3 (3d))	Tumor Volume After Tumor Injection, 28 days ([2]; treatment injected Day 7 (7d))	Tumor Volume After Tumor Injection, 42 days ([2]; treatment injected Day 7 (7d))
COc1cccc2c1C(=O)c1c(O)c3c(c(O)c1C2=O)C[C@@](O)(C(=O)CO)C[C@@H]3O[C@H]1C[C@H](N)[C@H](O)[C@H](C)O1 [DOX, doxorubicin]	strongest inhibitory effect	–	–	–	–	–	–	–
COc1cccc2c1C(=O)c1c(O)c3c(c(O)c1C2=O)C[C@@](O)(C(=O)CO)C[C@@H]3O[C@H]1C[C@H](N)[C@H](O)[C@H](C)O1 [Bolus Dox, doxorubicin hydrochloride]	–	8	did not produce early death	5 and 3	1218.9 ± 304.1 mm^3	3942.5 ± 1818 mm^3	1661.2 ± 301.8 mm^3	4394.3 ± 741.3 mm^3
